Measurements: ChEMBL document CHEMBL4419164, “Methods and compositions for inhibiting cnksr1” (2018)
pIC50, pKd: −log10 of the molar value. The source made the active and inactive calls. The calls are words filed in the database; no cut-off is given here.

Tests used:
[1] = molecular target: T1, Connector enhancer of kinase suppressor of ras 1 (Homo sapiens, UniProt Q969H4); assay: Binding affinity to CNKSR1 PH-domain (unknown origin) by SPR spectroscopy; conditions: for pKd: read-out: Kd
T1 sequence (Q969H4 whole entry): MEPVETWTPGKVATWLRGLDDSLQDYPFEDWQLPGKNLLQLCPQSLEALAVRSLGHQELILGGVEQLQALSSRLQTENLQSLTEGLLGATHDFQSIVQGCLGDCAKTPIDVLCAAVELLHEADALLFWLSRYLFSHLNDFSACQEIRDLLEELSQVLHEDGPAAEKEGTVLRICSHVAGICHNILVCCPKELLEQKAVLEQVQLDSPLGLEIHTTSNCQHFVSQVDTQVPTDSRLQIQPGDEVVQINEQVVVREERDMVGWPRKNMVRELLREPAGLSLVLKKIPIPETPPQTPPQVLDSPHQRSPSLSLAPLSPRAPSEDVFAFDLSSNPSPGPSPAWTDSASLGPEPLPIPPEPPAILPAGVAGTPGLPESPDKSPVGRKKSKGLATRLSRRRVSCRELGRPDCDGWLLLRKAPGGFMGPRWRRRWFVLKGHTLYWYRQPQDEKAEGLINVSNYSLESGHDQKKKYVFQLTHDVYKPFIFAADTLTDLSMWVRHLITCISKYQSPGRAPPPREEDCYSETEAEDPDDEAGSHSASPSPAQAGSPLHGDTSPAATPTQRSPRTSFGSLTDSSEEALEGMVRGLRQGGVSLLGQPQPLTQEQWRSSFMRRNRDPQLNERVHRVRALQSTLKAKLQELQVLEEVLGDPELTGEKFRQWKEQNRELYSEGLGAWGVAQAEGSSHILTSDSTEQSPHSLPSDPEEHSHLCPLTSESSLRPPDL

[2] = molecular target: RAC-alpha serine/threonine-protein kinase (Homo sapiens, UniProt P31749); assay: Binding affinity to AKT PH-domain (unknown origin) at 0.01 to 50 uM by SPR spectroscopy; conditions: for pKd: read-out: Kd
[3] = Terminal half life in iv dosed mouse; assay type: ADME, organism-based; conditions: in vivo, read-out: beta t1/2
HCC95 = assay: Growth inhibition of human HCC95 cells incubated for 3 days; assay type: functional, cell-based; conditions: HCC95, 72 h
[4] = Growth inhibition of human […] cells incubated for 3 days; assay type: functional; conditions: 72 h
NCI-H2122 [5] = assay: Growth inhibition of human NCI-H2122 cells incubated for 3 days; assay type: functional, cell-based; conditions: NCI-H2122, 72 h
HCC515 [6] = assay: Growth inhibition of human HCC515 cells incubated for 3 days; assay type: functional, cell-based; conditions: HCC515, 72 h
[7] = molecular target: T2, Connector enhancer of kinase suppressor of ras 1 (Homo sapiens) (UniProt Q969H4); assay: Inhibition of CNKSR1 (unknown origin) assessed as reduction in inhibition of KRas signaling effectors by measuring p-AKT levels at 20 uM by cell based assay
T2 sequence (whole entry): T1 sequence (Q969H4 whole entry)

[8] = molecular target: T2, Connector enhancer of kinase suppressor of ras 1 (Homo sapiens); assay: Inhibition of CNKSR1 (unknown origin) assessed as reduction in inhibition of KRas signaling effectors by measuring p-MAPK levels at 20 uM by cell based assay
[9] = molecular target: T2, Connector enhancer of kinase suppressor of ras 1 (Homo sapiens); assay: Inhibition of CNKSR1 (unknown origin) assessed as reduction in inhibition of KRas signaling effectors by measuring GTP-RalA levels at 20 uM by cell based assay
Pleckstrin = molecular target: T3, Pleckstrin (Homo sapiens, UniProt P08567); assay: Binding affinity to PLEK PH-domain (unknown origin) at 0.01 to 50 uM by SPR spectroscopy
T3 sequence (P08567 whole entry): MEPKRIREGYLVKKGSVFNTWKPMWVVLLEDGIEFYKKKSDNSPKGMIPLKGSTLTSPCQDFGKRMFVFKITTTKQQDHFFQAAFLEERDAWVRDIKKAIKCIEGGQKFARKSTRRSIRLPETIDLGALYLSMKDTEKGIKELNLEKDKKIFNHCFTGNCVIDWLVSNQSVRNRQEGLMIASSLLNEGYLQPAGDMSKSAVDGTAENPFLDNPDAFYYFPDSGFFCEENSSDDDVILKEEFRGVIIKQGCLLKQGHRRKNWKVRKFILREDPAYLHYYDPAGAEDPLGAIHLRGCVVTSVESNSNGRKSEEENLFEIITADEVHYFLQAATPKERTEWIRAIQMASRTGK

HCC515 [10] = assay: Growth inhibition of human HCC515 cells relative to control; assay type: functional, cell-based
NCI-H2122 [11] = assay: Growth inhibition of human NCI-H2122 cells relative to control; assay type: functional, cell-based
A549 [12] = assay: Growth inhibition of human A549 cells relative to control; assay type: functional, cell-based
NCI-H1373 = assay: Growth inhibition of human NCI-H1373 cells relative to control; assay type: functional, cell-based
[13] = molecular target: T4, 3-phosphoinositide-dependent protein kinase 1 (Homo sapiens) (UniProt O15530); assay: Binding affinity to PDPK1 PH-domain (unknown origin) at 0.01 to 50 uM by SPR spectroscopy
T4 sequence (whole entry): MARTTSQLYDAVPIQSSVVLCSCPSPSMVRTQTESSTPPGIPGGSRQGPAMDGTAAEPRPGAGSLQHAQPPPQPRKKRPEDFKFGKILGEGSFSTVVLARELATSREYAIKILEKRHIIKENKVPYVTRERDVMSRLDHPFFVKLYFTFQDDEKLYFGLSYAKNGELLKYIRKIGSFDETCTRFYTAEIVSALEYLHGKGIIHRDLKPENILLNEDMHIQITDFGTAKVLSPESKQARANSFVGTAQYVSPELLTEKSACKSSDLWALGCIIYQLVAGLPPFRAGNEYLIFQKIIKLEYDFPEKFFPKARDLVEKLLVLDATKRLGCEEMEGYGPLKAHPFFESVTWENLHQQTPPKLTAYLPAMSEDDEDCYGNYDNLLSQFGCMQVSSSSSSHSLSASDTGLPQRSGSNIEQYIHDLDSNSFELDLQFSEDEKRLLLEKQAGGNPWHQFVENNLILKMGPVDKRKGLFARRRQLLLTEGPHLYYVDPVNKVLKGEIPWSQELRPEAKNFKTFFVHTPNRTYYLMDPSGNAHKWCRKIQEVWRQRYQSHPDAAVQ

[14] = molecular target: Rho guanine nucleotide exchange factor TIAM1 (Homo sapiens) (UniProt Q13009); assay: Binding affinity to TIAM1 PH-domain (unknown origin) at 0.01 to 50 uM by SPR spectroscopy
Homo sapiens [15] = species on record: Homo sapiens; assay: Selectivity index, ratio of binding affinity to AKT PH-domain (unknown origin) by SPR spectroscopy to binding affinity to CNKSR1 PH-domain (unknown origin) by SPR spectroscopy
Homo sapiens [16] = species on record: Homo sapiens; assay: Selectivity index, ratio of binding affinity to PDPK1 PH-domain (unknown origin) by SPR spectroscopy to binding affinity to CNKSR1 PH-domain (unknown origin) by SPR spectroscopy
Homo sapiens [17] = species on record: Homo sapiens; assay: Selectivity index, ratio of binding affinity to TIAM1 PH-domain (unknown origin) by SPR spectroscopy to binding affinity to CNKSR1 PH-domain (unknown origin) by SPR spectroscopy
[18] = molecular target: T2, Connector enhancer of kinase suppressor of ras 1 (Homo sapiens); assay: Inhibition of GFP-tagged CNKSR1 (unknown origin) expressed in HEK293T cells assessed as blocking of membrane colocalization of CNKSR1 and mutant-KRas at plasma membrane at 50 uM incubated for 4 hrs by confocal imaging assay; assay type: cell-based
[19] = molecular target: T2, Connector enhancer of kinase suppressor of ras 1 (Homo sapiens); assay: Inhibition of GFP-tagged CNKSR1 (unknown origin) expressed in HEK293T cells assessed as reduction in total mutant-KRas protein at 50 uM incubated for 4 hrs by confocal imaging assay; assay type: cell-based
[20] = molecular target: T2, Connector enhancer of kinase suppressor of ras 1 (Homo sapiens); assay: Inhibition of GFP-tagged CNKSR1 (unknown origin) expressed in HEK293T cells assessed as inhibition of direct binding of CNKSR1 to mut-KRAS at 50 uM incubated for 4 hrs by fluorescence lifetime imaging microscopy; assay type: cell-based
A549 [21] = assay: Antitumor activity against human A549 cells xenografted in nu/nu mouse assessed as reduction in tumor volume at 200 mg/kg, ip dosed daily for 8 days; assay type: functional, organism-based
A549 [22] = assay: Antitumor activity against human A549 cells xenografted in nu/nu mouse assessed as reduction in tumor volume at 200 mg/kg, ip dosed daily for 8 days co-treated with 75 mg/kg, po erlotinib; assay type: functional, organism-based
[23] = Cmax in C57BL6 mouse plasma at 250 mg/kg, po dosed via gavage as single administration; assay type: ADME, organism-based; set-up: dose 250 mg/kg, route oral
[24] = Half life in C57BL6 mouse at 250 mg/kg, po dosed via gavage as single administration; assay type: ADME, organism-based; conditions: in vivo

Chain of RAC-alpha serine/threonine-protein kinase (P31749 whole entry): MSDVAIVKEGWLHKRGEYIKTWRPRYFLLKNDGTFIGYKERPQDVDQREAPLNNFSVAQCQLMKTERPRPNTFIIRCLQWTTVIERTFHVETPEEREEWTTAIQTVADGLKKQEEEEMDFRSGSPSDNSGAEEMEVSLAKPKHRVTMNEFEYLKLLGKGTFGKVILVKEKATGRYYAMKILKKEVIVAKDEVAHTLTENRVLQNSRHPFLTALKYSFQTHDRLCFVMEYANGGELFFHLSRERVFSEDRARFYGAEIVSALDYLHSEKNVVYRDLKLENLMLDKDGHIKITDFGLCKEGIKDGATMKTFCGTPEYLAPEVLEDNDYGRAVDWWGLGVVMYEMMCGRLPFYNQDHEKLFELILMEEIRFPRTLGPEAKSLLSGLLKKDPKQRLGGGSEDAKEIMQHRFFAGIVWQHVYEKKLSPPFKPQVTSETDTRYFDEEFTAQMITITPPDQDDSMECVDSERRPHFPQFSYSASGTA
Chain of Rho guanine nucleotide exchange factor TIAM1 (Homo sapiens) (Q13009 whole entry): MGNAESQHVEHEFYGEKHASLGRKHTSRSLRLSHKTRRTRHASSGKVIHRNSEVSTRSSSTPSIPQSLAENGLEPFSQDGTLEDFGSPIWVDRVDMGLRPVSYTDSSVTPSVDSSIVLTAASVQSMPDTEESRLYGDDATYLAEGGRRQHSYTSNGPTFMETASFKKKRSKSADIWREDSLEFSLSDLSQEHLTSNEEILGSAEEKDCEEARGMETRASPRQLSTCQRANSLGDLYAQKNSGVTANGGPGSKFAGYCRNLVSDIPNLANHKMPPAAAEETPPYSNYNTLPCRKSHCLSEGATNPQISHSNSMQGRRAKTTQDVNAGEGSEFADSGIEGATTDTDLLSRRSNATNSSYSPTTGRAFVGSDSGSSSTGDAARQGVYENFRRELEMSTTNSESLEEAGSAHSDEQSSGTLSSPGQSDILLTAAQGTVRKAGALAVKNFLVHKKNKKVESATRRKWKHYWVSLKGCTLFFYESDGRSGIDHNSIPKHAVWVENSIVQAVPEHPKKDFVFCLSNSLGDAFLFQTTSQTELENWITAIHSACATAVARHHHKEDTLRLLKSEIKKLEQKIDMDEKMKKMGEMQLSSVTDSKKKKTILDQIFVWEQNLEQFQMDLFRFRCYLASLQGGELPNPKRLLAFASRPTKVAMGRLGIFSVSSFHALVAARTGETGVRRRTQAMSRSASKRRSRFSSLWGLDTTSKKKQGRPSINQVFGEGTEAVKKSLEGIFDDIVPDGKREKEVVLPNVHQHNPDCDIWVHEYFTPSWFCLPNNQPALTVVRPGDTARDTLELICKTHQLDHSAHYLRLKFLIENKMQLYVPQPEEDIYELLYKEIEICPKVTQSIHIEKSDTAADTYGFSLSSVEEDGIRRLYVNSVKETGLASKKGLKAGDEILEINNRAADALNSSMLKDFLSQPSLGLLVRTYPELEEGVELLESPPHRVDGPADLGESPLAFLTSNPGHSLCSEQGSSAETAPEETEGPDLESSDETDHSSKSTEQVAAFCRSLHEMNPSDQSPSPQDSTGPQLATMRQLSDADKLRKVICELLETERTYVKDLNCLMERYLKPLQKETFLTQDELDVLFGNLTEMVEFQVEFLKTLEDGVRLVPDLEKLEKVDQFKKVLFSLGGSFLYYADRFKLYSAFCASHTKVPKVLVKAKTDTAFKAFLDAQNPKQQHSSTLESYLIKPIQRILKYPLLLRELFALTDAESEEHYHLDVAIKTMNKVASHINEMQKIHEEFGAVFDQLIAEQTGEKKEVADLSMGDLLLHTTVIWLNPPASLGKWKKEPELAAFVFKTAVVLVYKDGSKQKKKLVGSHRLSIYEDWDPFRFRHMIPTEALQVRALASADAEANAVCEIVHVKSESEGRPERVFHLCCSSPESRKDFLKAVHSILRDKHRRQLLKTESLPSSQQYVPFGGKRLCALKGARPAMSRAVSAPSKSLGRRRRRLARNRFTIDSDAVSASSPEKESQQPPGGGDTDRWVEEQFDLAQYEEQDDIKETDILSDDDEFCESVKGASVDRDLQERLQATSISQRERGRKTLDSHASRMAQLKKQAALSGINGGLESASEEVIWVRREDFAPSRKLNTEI

`O=C(O)c1ccc2c(c1)C1C=CCC1C(C(=O)O)N2` (stereo not drawn) showed a pKd [1] of 5.27 and a pKd [2] of 9.32.

For `COc1c(/C=C/C(=O)O)cc(NS(=O)(=O)c2cccs2)c2c1OCO2`, the Kd [1] was “Not Active” and the Kd [2] was “Not Active”.

For `Cc1ccc(-c2csc(Cn3nc(Cc4nccs4)c4ccccc4c3=O)n2)cc1`, the half-life [3] was 4.08 h, the pIC50 (HCC95) was 4.34 and the pIC50 [4] was 4.31. For the same compound, the pIC50 (NCI-H2122 [5]) was 4.59, the pIC50 (HCC515 [6]) was 4.55 and the inhibition [7] was “Active”. For the same compound, the inhibition [8] was “Active” and the inhibition [9] was “Active”.

For `CCOC(=O)/C=C/c1c(O)c(OC)cc(NS(=O)(=O)c2cccs2)c1SC`, the pKd (Pleckstrin) was 3.52.

`CCOC(=O)/C=C/c1cc(NS(=O)(=O)c2cccs2)c2c(c1O)OCO2` showed a pKd (Pleckstrin) of 3.58.

For `O=C(O)CCc1ccc(-c2ccc(Br)cc2)n1CCC(=O)O`, the pKd [1] was 9.71 and the Activity [2] was “Active”.

Compound `Cc1ccc(-c2nc(SCC(=O)O)c3c(=O)n(C)c(=O)n(C)c3n2)cc1` has a pKd [1] of 6.00 and a pKd [2] of 5.89.

For `Nc1cccc(-c2cc(C(=O)O)c3cc(Cl)ccc3n2)c1`, the Activity [2] was “Active”.

With `CC(=O)Nc1cccc(-n2nnc(SCC(=O)c3cc(-c4ccccc4)no3)n2)c1` the “growth inhibition (GI)” value (HCC515 [10]) was “Active”, the “growth inhibition (GI)” value (NCI-H2122 [11]) was “Active” and the “growth inhibition (GI)” value (A549 [12]) was “Active”. The “growth inhibition (GI)” value (NCI-H1373) was “Active”, the Activity [2] was “inactive” and the Activity [13] was “inactive”. The Activity [14] was “inactive”, the Ratio (Homo sapiens [15]) was 50 to 100 and the Ratio (Homo sapiens [16]) was 50 to 100. For the same compound, the Ratio (Homo sapiens [17]) was 50 to 100.

In the case of `Cc1ccc(-c2csc(Cn3nc(CC4OCC(=O)O4)c4ccccc4c3=O)n2)cc1` (stereo not drawn), the pIC50 (HCC95) was 4.40, the pIC50 [4] was 4.25 and the pIC50 (NCI-H2122 [5]) was under 4.00. The pIC50 (HCC515 [6]) was 4.47, the inhibition [7] was “Active” and the inhibition [8] was “Active”. For the same compound, the inhibition [9] was “Active”.

In the case of `Cc1ccc(-c2csc(Cn3nc(CC=O)c4ccccc4c3=O)n2)cc1`, the half-life [3] was 0.583 h.

In the case of `O=C(O)CSc1cc(NS(=O)(=O)c2cccs2)c2ccccc2c1O`, the pKd [1] was 5.44, the Activity [2] was “Active” and the pIC50 (HCC95) was 4.89. The pIC50 [4] was 5.15, the pIC50 (NCI-H2122 [5]) was 4.47 and the pIC50 (HCC515 [6]) was 4.96.

`Cc1ccc(-c2csc(Cn3nc(CC(=O)N4CCN(C)CC4)c4ccccc4c3=O)n2)cc1` showed a half-life [3] of 5.45 h.

With `COc1ccc(OC)c(-c2cc(C(=O)O)c3nc(C)[nH]c3n2)c1` the Activity [2] was “Active”.

Compound `Cc1ccc(-c2csc(Cn3nc(CC4OCCCO4)c4ccccc4c3=O)n2)cc1` has a half-life [3] of 4.33 h, a pIC50 (HCC95) of 4.35 and a pIC50 [4] of 4.42. The pIC50 (NCI-H2122 [5]) was under 4.00, the pIC50 (HCC515 [6]) was 4.43 and the inhibition [18] was “Active”. The inhibition [19] was “Active”, the inhibition [20] was “Active” and the inhibition [7] was “Active”. The inhibition [8] was “Active”, the inhibition [9] was “Active” and the TGI (A549 [21]) was “Active”. For the same compound, the TGI (A549 [22]) was “Active”.

In the case of `O=C(O)COc1cc(OCC(=O)O)c2c3c(c(=O)oc2c1)CCCC3`, the pKd [1] was 5.95 and the Activity [2] was “Active”.

Compound `Cc1ccc(-c2csc(Cn3nc(CC(=O)O)c4ccccc4c3=O)n2)cc1` has a half-life [3] of 1.2 h, a Cmax [23] of 230 µM and a half-life [24] of 13 h. For the same compound, the pIC50 (HCC95) was under 4.00, the pIC50 [4] was under 4.00 and the pIC50 (NCI-H2122 [5]) was under 4.00. The pIC50 (HCC515 [6]) was under 4.00, the inhibition [7] was “Active” and the inhibition [8] was “Active”. The inhibition [9] was “Active”.

With `Cc1c(Cl)ccc2c(C(=O)O)cc(-c3cccnc3)nc12` the Activity [2] was “Active”.

In the case of `CCNC(=O)Cc1nn(Cc2nc(-c3ccc(C)cc3)cs2)c(=O)c2ccccc12`, the half-life [3] was 0.467 h and the TGI (A549 [21]) was “Active”.
